Test results taken from patent US11357737B2, “Chitosan nanofibers containing bioactive compounds” (FUNDACION COPEC UNIVERSIDAD CATÓLICA, priority 2015, dated 2022).

What was measured:
[1] = Neuroprotection against oxidative damage by H2O2 in hippocampal cultures (neuronal viability); format: cell-based; conditions: rat, primary hippocampal neurons from 18-day rat embryos; 50 μM H2O2 for 1 h, vehicle pre-incubation, 24 h after exposure; read-out: cell viability in the control condition (vehicle) after H2O2
Method: Brains were used from 18-day rat embryos.
The hippocampal neurons of rat obtained in point 2.1 were used to evaluate the neuroprotective effect of the nanofibers of the invention.
The neuroprotective effect of the antioxidant mixture (AOX) was evaluated, for which the neurons obtained in point 2.1 were incubated for 24 hours in a medium supplemented with the mixture of antioxidants obtained in Example 1.1. Neuronal viability was compared to control (incubated with the vehicle without antioxidants) at concentrations of 0.001, 1, 10, 100, 150 and 200 μM of AOX, before and after the exposure of crops to a concentration of 50 μM of H2O2, during 1 h of incubation.
The neuroprotective effect of the nanofibers of the invention (NF) was evaluated, for which the neurons obtained in point 2.1 were incubated for 24 hours in a medium supplemented with the nanofibers of the invention obtained in Example 1.2. The neuronal viability compared to the control (incubated with the vehicle without nanofibers) was compared with nanofibers containing concentrations of 0.001, 1, 10, 100, 150 and 200 μM of AOX, before and after the exposure of crops to a concentration of 50 μM of H2O2, during 1 hour of incubation.

in vitro = conditions: rat
Excerpt: Brains were used from 18-day rat embryos. The extracted hippocampi were placed in modified Hanks saline solution (mHBSS, for its name in English: Hank's buffer salt solution) and washed three times to then add trypsin (0.25%). After this treatment, the hippocampi were washed with mHBSS and transferred to a MEM medium (Minimum Essential Medium) supplemented with 10% horse serum (HS), disintegrating with Pasteur pipette. The cell suspension was collected by low speed centrifugation (2000×g×20 s) at room temperature. The supernatant was saved and the pellet was broken up again with a very fine tip Pasteur pipette. Another centrifugation was performed at low speed (2000×g×20 s) at room temperature. The supernatant containing the cells in suspension was pooled with the above supernatant and the viable cells were counted using Trypan blue (0.2%). Subsequently, the neurons were seeded in culture plates in MEM supplemented with 10% HS. After the hippocampal neurons adhered to the plaque, they were exchanged for medium with a Neurobasal medium with the culture supplement B27, remaining in culture for fourteen days.
Initially, the percentage of cellular viability of said hippocampal neurons exposed to different concentrations of hydrogen peroxide was evaluated. (10, 50, 100, 200, 500 μM) during 1 h. Hydrogen peroxide (H2O2) under biological conditions, it is a highly oxidizing compound.

Which viability at 1 h, 50 μM [1] does the source give for `OO` [H2O2, Hydrogen peroxide] here?
The viability at 1 h, 50 μM was < 50%.

And the viability at 1 h, 10 μM (in vitro)?
The viability at 1 h, 10 μM was 69.5%.

And the viability at 1 h, 50 μM (in vitro)?
Its viability at 1 h, 50 μM is 44.3%.

And the viability at 1 h, 100 μM (in vitro)?
Its viability at 1 h, 100 μM is 29.1%.

And the viability at 1 h, 200 μM (in vitro)?
Its viability at 1 h, 200 μM is 19.6%.

What about the viability at 1 h, 500 μM (in vitro) of the same compound?
The viability at 1 h, 500 μM was 15.8%.
